According to PubChem BioAssay (NCI):
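Growth conditions: 96-well plates. Treatment: test compound, 48 hours, 5 concentrations. Analysis: linear interpolation between bracketing concentrations; unreached endpoints set to highest concentration. At the TGI there is no net growth.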

Assays:
Test in all cases: inhibition of tumour cell growth, NCI panel, 48 h
[1] = test system: M14 melanoma
[2] = test system: UACC-62 melanoma
[3] = test system: OVCAR-3 ovarian
[4] = test system: HOP-92 NSCLC
[5] = test system: COLO 205 colon
[6] = test system: MCF7 breast
[7] = test system: RPMI-8226 leukemia
[8] = test system: NCI-H460 lung
[9] = test system: U251 CNS
[10] = test system: NCI/ADR-RES ovarian
[11] = test system: 786-0 renal
[12] = test system: IGROV1 ovarian
[13] = test system: SK-MEL-5 melanoma
[14] = test system: MDA-MB-435
[15] = test system: MALME-3M melanoma
[16] = test system: SN12C renal
[17] = test system: TK-10 renal
[18] = test system: UO-31 renal
[19] = test system: SR leukemia
[20] = test system: HS 578T breast
[21] = test system: A549 NSCLC
[22] = test system: HCT-116 colon
[23] = test system: T-47D breast
[24] = test system: OVCAR-4 ovarian
[25] = test system: SF-295 CNS
[26] = test system: NCI-H522 lung
[27] = test system: UACC-257 melanoma
[28] = test system: HT29 colon
[29] = test system: MDA-N
[30] = test system: NCI-H23 lung
[31] = test system: KM12 colon
[32] = test system: EKVX NSCLC
[33] = test system: HCC-2998 colon
[34] = test system: SK-MEL-2 melanoma
[35] = test system: SNB-75 CNS
[36] = test system: DU-145 prostate
[37] = test system: HCT-15 colon
[38] = test system: LOX IMVI melanoma
[39] = test system: OVCAR-8 ovarian
[40] = test system: SK-MEL-28 melanoma
[41] = test system: PC-3 prostate
[42] = test system: K-562 leukemia
[43] = test system: SF-268 CNS
[44] = test system: MDA-MB-231 breast
[45] = test system: SW-620 colon
[46] = test system: HL-60(TB) leukemia
[47] = test system: RXF 393 renal
[48] = test system: CAKI-1 renal
[49] = test system: SNB-19 CNS
[50] = test system: SK-OV-3 ovarian
[51] = test system: MOLT-4 leukemia
[52] = test system: HOP-62 NSCLC
[53] = test system: NCI-H226 lung
[54] = test system: OVCAR-5 ovarian
[55] = test system: ACHN renal
[56] = test system: CCRF-CEM leukemia
[57] = test system: BT-549 breast
[58] = test system: A498 renal
[59] = test system: SF-539 CNS

Measured: TGI

O=S(=O)(O)c1ccc(N=Nc2ccc(N=Nc3c(O)ccc4ccccc34)cc2)cc1
> 100 µM: [1] | [2] | [3] | [4] | [5] | [6] | [7] | [8] | [9] | [10] | [11] | [12] | [13] | [14] | [15] | [16] | [17] | [18] | [19] | [20] | [21] | [22] | [23] | [24] | [25] | [26] | [27] | [28] | [29] | [30] | [31] | [32] | [33] | [34] | [35] | [36] | [37] | [38] | [39] | [40] | [41] | [42] | [43] | [44] | [45] | [46] | [47] | [48] | [49] | [50] | [51] | [52] | [53] | [54] | [55] | [56] | [57]

Cn1c(N)c2c3c(sc2nc1=O)CCCC3
> 75 µM: [2] | [3] | [5] | [6] | [7] | [8] | [9] | [10] | [11] | [12] | [13] | [14] | [15] | [16] | [17] | [18] | [19] | [20] | [22] | [23] | [24] | [25] | [26] | [27] | [28] | [29] | [30] | [31] | [32] | [33] | [34] | [35] | [36] | [58] | [37] | [38] | [39] | [40] | [41] | [42] | [43] | [44] | [45] | [46] | [47] | [48] | [49] | [51] | [52] | [53] | [54] | [55] | [57]

COc1ccc(OC)c(C2Cc3cnc4nc(N)nc(N)c4c3C2)c1 (stereo not given)
42.2 µM: [34]
87.5 µM: [51]
79.8 µM: [17]
55.1 µM: [22]
41.9 µM: [33]
96.9 µM: [39]
73.6 µM: [8]
83.7 µM: [29]
28 µM: [59]
44.9 µM: [19]
50.2 µM: [12]
41.6 µM: [3]
47.3 µM: [9] | [15]
47.6 µM: [38]
> 100 µM: [1] | [6] | [10] | [13] | [18] | [20] | [21] | [28] | [30] | [32] | [37] | [40] | [42] | [43] | [45] | [48] | [49] | [50] | [52] | [55] | [56]
89.9 µM: [11]
51.5 µM: [2]
65 µM: [14]
97.1 µM: [54]
40 µM: [46]
55.7 µM: [31] | [36]
53.8 µM: [4] | [24]
40.1 µM: [27]
65.5 µM: [23]
49 µM: [5]
33 µM: [58]
43.2 µM: [47]
52.6 µM: [44] | [57]
94.7 µM: [7]
64.3 µM: [26]
47.5 µM: [35]
69.7 µM: [41]
56.8 µM: [16]
93.7 µM: [25]

COc1ccc(CN(Cc2ccc(OC)cc2)C(=O)CC2(O)C=CCC2)cc1 (stereo not given)
> 100 µM: [1] | [2] | [3] | [4] | [5] | [6] | [7] | [8] | [9] | [10] | [11] | [12] | [13] | [14] | [15] | [16] | [17] | [18] | [19] | [20] | [21] | [22] | [23] | [24] | [25] | [26] | [27] | [28] | [29] | [30] | [31] | [32] | [33] | [34] | [35] | [36] | [58] | [37] | [38] | [39] | [40] | [41] | [42] | [59] | [44] | [45] | [46] | [48] | [49] | [50] | [51] | [52] | [53] | [54] | [55] | [56] | [57]

CCO/C=N/NC(=O)CSc1nc2ccc(I)cc2c(=O)n1Cc1ccccc1
13.3 µM: [26]
> 100 µM: [1] | [2] | [3] | [4] | [5] | [6] | [7] | [8] | [9] | [10] | [11] | [12] | [13] | [14] | [16] | [17] | [18] | [19] | [20] | [21] | [22] | [23] | [24] | [25] | [27] | [28] | [29] | [30] | [31] | [32] | [33] | [35] | [36] | [58] | [37] | [38] | [39] | [40] | [41] | [42] | [43] | [59] | [44] | [45] | [46] | [47] | [48] | [49] | [50] | [51] | [52] | [53] | [54] | [55] | [56] | [57]
65.1 µM: [34]

CCN(CC)C(=S)SS(=O)(=O)c1ccc(F)cc1
> 100 µM: [2] | [3] | [4] | [5] | [8] | [10] | [11] | [13] | [14] | [16] | [17] | [20] | [22] | [23] | [24] | [25] | [29] | [30] | [31] | [32] | [33] | [34] | [36] | [58] | [37] | [39] | [42] | [43] | [44] | [48] | [49] | [50] | [52] | [53] | [54] | [55] | [57]
73.4 µM: [9]
87.3 µM: [27]
0.505 µM: [26]
60.5 µM: [1]
68.4 µM: [15]
40.4 µM: [47]
55.5 µM: [7]
57.5 µM: [19]
41.7 µM: [38]
72.5 µM: [18]
30.5 µM: [40]
53.9 µM: [28]
53.7 µM: [45]
52.4 µM: [59]

O=c1c2c(-c3ccccc3)onc2n(-c2ccccc2)c(=O)n1-c1ccccc1
71 µM: [53]
82 µM: [41]
36.8 µM: [8]
33.1 µM: [33]
45.5 µM: [39]
49.7 µM: [1]
89.8 µM: [20]
30.4 µM: [18]
32 µM: [2]
59.5 µM: [32]
54.9 µM: [52]
84.2 µM: [35]
25 µM: [34]
38.6 µM: [3]
34.5 µM: [15]
47.8 µM: [30]
58.2 µM: [17]
53 µM: [27]
39.1 µM: [37]
33.2 µM: [26]
52.1 µM: [12]
44 µM: [54]
45.3 µM: [28]
> 100 µM: [4] | [5] | [6] | [7] | [9] | [11] | [13] | [14] | [16] | [19] | [21] | [22] | [23] | [24] | [25] | [29] | [58] | [38] | [42] | [43] | [59] | [44] | [45] | [47] | [48] | [49] | [50] | [51] | [55] | [56]
37 µM: [31]
39.5 µM: [57]
43.2 µM: [10]
